# Measurements as given in US8916702B2 (priority 2012, dated 2014).
# System: HCV pseudoparticles (genotype 1a HCV E1 and E2 envelope, H77C isolate)
# Assay: microbe, parasite or virus in culture
# Assay type: cell-based
# Conditions: Hepatitis C virus, Huh-7, 48 h, HCV pseudoparticle infection of Huh7 cells, luciferase 2 days after infection; average of duplicates
row,Compound,EC50 [nM]
1,COC(=O)[C@H](CCNC(=O)C(=O)NC(C)C1CC1)NC(=O)c1ccc(Nc2nc(NC3(c4ccc(Cl)cc4)CC3)nc(OCC(F)(F)F)n2)cc1 (stereo partly shown) [Compound 1417],0.16
2,Cn1cnnc1-c1ccc(NC(=O)C(=O)NCC(C)(C)CNC(=O)c2ccc(Nc3nc(NC4(c5ccc(Cl)cc5)CC4)nc(OCC(F)(F)F)n3)cc2)cc1 [Compound 1601],0.03
3,COC(=O)[C@H](CCNC(=O)C(=O)Nc1cc(F)c(F)c(F)c1)NC(=O)c1ccc(Nc2nc(NC3(c4ccc(Cl)cc4)CC3)nc(OCC(F)(F)F)n2)cc1 [Compound 1504],< 2.54

# Same assay, conditions: Hepatitis C virus, Huh-7, 48 h, HCV pseudoparticles (genotype 1a, H77C) in Huh7 cells; average of duplicate; luciferase 2 days after infection
row,Compound,EC50 [nM]
1,COC(=O)[C@H](CNC(=O)C(=O)Nc1ccc(C(=O)c2ccccc2)cc1)NC(=O)c1ccc(Nc2nc(NC3(c4ccc(Cl)cc4)CC3)nc(OCC(F)(F)F)n2)cc1 [Compound 3084],3.58
2,COC(=O)[C@H](CNC(=O)C(=O)Nc1ccc(-n2ccnc2C)cc1)NC(=O)c1ccc(Nc2nc(NC3(c4ccc(Cl)cc4)CC3)nc(OCC(F)(F)F)n2)cc1 [Compound 3203],5.47
3,Cc1ccc(NC(=O)C(=O)NCC(C)(C)CNC(=O)c2ccc(Nc3nc(NC4(c5ccc(Cl)cc5)CC4)nc(OCC(F)(F)F)n3)cc2-n2nnnc2C)cc1 [Compound 3518],0.097
4,COC(=O)[C@H](CNC(=O)C(=O)Nc1ccc(-n2nnnc2C)cc1)NC(=O)c1ccc(Nc2nc(NC3(c4ccc(Cl)cc4)CC3)nc(OCC(F)(F)F)n2)cc1 [Compound 3107],0.92

# Same assay, conditions: Hepatitis C virus, Huh-7, 48 h, HCV pseudoparticles, Huh7 cells, luciferase 2 days after infection; average of duplicates
row,Compound,EC50 [nM]
1,O=C(NCC[C@H](NC(=O)c1ccc(Nc2nc(NC3(c4ccc(Cl)cc4)CC3)nc(OCC(F)(F)F)n2)cc1)C(=O)O)C(=O)Nc1ccc(Oc2ccccc2)nc1 [Compound 3640],16.1

# Same assay, conditions: Hepatitis C virus, Huh-7, 48 h, read-out: Activity (EC50 class), HCV pseudoparticle infection of Huh7 cells, luciferase 2 days after infection; EC50 expressed as class A/B
row,Compound,EC50 [nM]
1,COC(=O)[C@H](CNC(=O)C(=O)Nc1cccc(C(F)(F)F)c1)NC(=O)c1ccc(Nc2nc(NC3(c4ccc(Cl)cc4)CC3)nc(OCC(F)(F)F)n2)cc1 [Compound 1251],0.01 to 10
2,COC(=O)[C@H](CNC(=O)C(=O)NCC1OCCc2ccccc21)NC(=O)c1ccc(Nc2nc(NC3(c4ccc(Cl)cc4)CC3)nc(OCC(F)(F)F)n2)cc1 (stereo partly shown) [Compound 1297],0.01 to 10
3,O=C(NCC[C@H](NC(=O)c1ccc(Nc2nc(NC3(c4ccc(Cl)cc4)CC3)nc(OCC(F)(F)F)n2)cc1)C(=O)O)C(=O)NCC1CC1 [Compound 1206],0.01 to 10
4,O=C(NCC[C@H](NC(=O)c1ccc(Nc2nc(NC3(c4ccc(Cl)cc4)CC3)nc(OCC(F)(F)F)n2)cc1)C(=O)O)C(=O)NCC1CCc2ccccc21 (stereo partly shown) [Compound 1345],0.01 to 10
5,COC(=O)[C@H](CCNC(=O)C(=O)Nc1cccc(Cl)c1)NC(=O)c1ccc(Nc2nc(NC3(c4ccc(Cl)cc4)CC3)nc(OCC(F)(F)F)n2)cc1 [Compound 1499],0.01 to 10
6,COC(=O)[C@H](CCNC(=O)C(=O)NCc1cccc(F)c1)NC(=O)c1ccc(Nc2nc(NC3(c4ccc(Cl)cc4)CC3)nc(OCC(F)(F)F)n2)cc1 [Compound 1139],0.01 to 10
7,COC(=O)[C@H](CCNC(=O)C(=O)NC(C)C1CC1)NC(=O)c1ccc(Nc2nc(NC3(c4ccc(Cl)cc4)CC3)nc(OCC(F)(F)F)n2)cc1 (stereo partly shown) [Compound 1417],0.01 to 10
8,"NC(=O)C(=O)NC[C@H](NC(=O)c1ccc(Nc2nc(NC3(c4ccc(Cl)cc4)CC3)nc(OCC(F)(F)F)n2)cc1)C(=O)O [Compound 1005, (S)-3-(2-amino-2-oxoacetamido)-2-(4-(4-(1-(4-chlorophenyl)cyclopropylamino)-6-(2,2,2-trifluoroethoxy)-1,3,5-triazin-2-ylamino)benzamido)propanoic acid]",0.01 to 10
9,COC(=O)[C@H](CCNC(=O)C(=O)Nc1ccc(O)nc1)NC(=O)c1ccc(Nc2nc(NC3(c4ccc(Cl)cc4)CC3)nc(OCC(F)(F)F)n2)cc1 [Compound 1520],0.01 to 10
10,O=C(NCCc1ccccc1F)C(=O)NC[C@H](NC(=O)c1ccc(Nc2nc(NC3(c4ccc(Cl)cc4)CC3)nc(OCC(F)(F)F)n2)cc1)C(=O)O [Compound 1402],0.01 to 10
11,O=C(NCC[C@H](NC(=O)c1ccc(Nc2nc(NC3(c4ccc(Cl)cc4)CC3)nc(OCC(F)(F)F)n2)cc1)C(=O)O)C(=O)Nc1cccc(Cl)c1 [Compound 1500],0.01 to 10
12,O=C(NCC[C@H](NC(=O)c1ccc(Nc2nc(NC3(c4ccc(Cl)cc4)CC3)nc(OCC(F)(F)F)n2)cc1)C(=O)O)C(=O)NCc1cc(F)cc(F)c1 [Compound 1192],0.01 to 10
13,CC(NC(=O)C(=O)NCC[C@H](NC(=O)c1ccc(Nc2nc(NC3(c4ccc(Cl)cc4)CC3)nc(OCC(F)(F)F)n2)cc1)C(=O)O)C1CC1 (stereo partly shown) [Compound 1440],0.01 to 10
14,O=C(NC[C@H](NC(=O)c1ccc(Nc2nc(NC3(c4ccc(Cl)cc4)CC3)nc(OCC(F)(F)F)n2)cc1)C(=O)O)C(=O)Nc1cn[nH]c1 [Compound 1354],0.01 to 10
15,Cn1cnnc1-c1ccc(NC(=O)C(=O)NCC(C)(C)CNC(=O)c2ccc(Nc3nc(NC4(c5ccc(Cl)cc5)CC4)nc(OCC(F)(F)F)n3)cc2)cc1 [Compound 1601],0.01 to 10
16,COC(=O)[C@H](CCNC(=O)C(=O)Nc1cc(F)c(F)c(F)c1)NC(=O)c1ccc(Nc2nc(NC3(c4ccc(Cl)cc4)CC3)nc(OCC(F)(F)F)n2)cc1 [Compound 1504],0.01 to 10
17,COC(=O)[C@H](CCNC(=O)C(=O)Nc1cc(F)cc(F)c1)NC(=O)c1ccc(Nc2nc(NC3(c4ccc(Cl)cc4)CC3)nc(OCC(F)(F)F)n2)cc1 [Compound 1506],0.01 to 10
18,"NC(=O)C(=O)NCCC[C@H](NC(=O)c1ccc(Nc2nc(NC3(c4ccc(Cl)cc4)CC3)nc(OCC(F)(F)F)n2)cc1)C(=O)O [Compound 1016, (S)-5-(2-amino-2-oxoacetamido)-2-(4-(4-(1-(4-chlorophenyl)cyclopropylamino)-6-(2,2,2-trifluoroethoxy)-1,3,5-triazin-2-ylamino)benzamido)pentanoic acid]",0.01 to 10

# Same assay, conditions: Hepatitis C virus, Huh-7, 48 h, read-out: Activity (EC50 class), HCV pseudoparticles, Huh7 cells, luciferase 2 days after infection; average of duplicates
row,Compound,EC50 [nM]
1,O=C(NCC[C@H](NC(=O)c1ccc(Nc2nc(NC3(c4ccc(Cl)cc4)CC3)nc(OCC(F)(F)F)n2)cc1)C(=O)O)C(=O)Nc1ccc(Oc2ccccc2)nc1 [Compound 3640],10 to 1000
2,COc1cc2nc(NC(=O)C(=O)NCC(C)(C)CNC(=O)c3ccc(Nc4nc(NC5(c6ccc(Cl)cc6)CC5)nc(OCC(F)(F)F)n4)cc3)sc2cc1OC [Compound 3665],0.01 to 10
3,Cc1nc(-c2cccc(NC(=O)C(=O)NCC[C@H](NC(=O)c3ccc(Nc4nc(NC5(c6ccc(Cl)cc6)CC5)nc(OCC(F)(F)F)n4)cc3)C(=O)O)c2)cs1 [Compound 3642],0.01 to 10
4,O=C(NCC[C@H](NC(=O)c1ccc(Nc2nc(NC3(c4ccc(Cl)cc4)CC3)nc(OCC(F)(F)F)n2)cc1)C(=O)O)C(=O)Nc1cccc(Cc2ccccc2)c1 [Compound 3639],0.01 to 10
5,O=C(NC[C@H](NC(=O)c1ccc(Nc2nc(NC3(c4ccc(Cl)cc4)CC3)nc(OCC(F)(F)F)n2)cc1)C(=O)O)C(=O)Nc1ccc(O)nc1 [Compound 3777],0.01 to 10
6,COC(=O)[C@H](CNC(=O)C(=O)Nc1cccc(-c2ccnc(C)n2)c1)NC(=O)c1ccc(Nc2nc(NC3(c4ccc(Cl)cc4)CC3)nc(OCC(F)(F)F)n2)cc1 [Compound 3700],0.01 to 10
7,COc1cccc2sc(NC(=O)C(=O)NCC(C)(C)CNC(=O)c3ccc(Nc4nc(NC5(c6ccc(Cl)cc6)CC5)nc(OCC(F)(F)F)n4)cc3F)nc12 [Compound 3814],0.01 to 10
8,O=C(NCC[C@H](NC(=O)c1ccc(Nc2nc(NC3(c4ccc(Cl)cc4)CC3)nc(OCC(F)(F)F)n2)cc1)C(=O)O)C(=O)Nc1cccc(-n2cnnc2)c1 [Compound 3653],0.01 to 10
9,O=C(NCC[C@H](NC(=O)c1ccc(Nc2nc(NC3(c4ccc(Cl)cc4)CC3)nc(OCC(F)(F)F)n2)cc1)C(=O)O)C(=O)Nc1cccc(S(=O)(=O)N2CCCCC2)c1 [Compound 3641],0.01 to 10

# Same assay, conditions: Hepatitis C virus, Huh-7, read-out: Activity (EC50 class), HCV pseudoparticles (genotype 1a, H77C) in Huh7 cells; EC50 expressed as class A/B
row,Compound,EC50 [nM]
1,COC(=O)[C@H](CNC(=O)C(=O)Nc1ccc(C(=O)c2ccccc2)cc1)NC(=O)c1ccc(Nc2nc(NC3(c4ccc(Cl)cc4)CC3)nc(OCC(F)(F)F)n2)cc1 [Compound 3084],0.01 to 10
2,COC(=O)[C@H](CNC(=O)C(=O)Nc1ccc(-n2ccnc2C)cc1)NC(=O)c1ccc(Nc2nc(NC3(c4ccc(Cl)cc4)CC3)nc(OCC(F)(F)F)n2)cc1 [Compound 3203],0.01 to 10
3,Cc1ccc(NC(=O)C(=O)NCC(C)(C)CNC(=O)c2ccc(Nc3nc(NC4(c5ccc(Cl)cc5)CC4)nc(OCC(F)(F)F)n3)cc2-n2nnnc2C)cc1 [Compound 3518],0.01 to 10
4,Cc1nnnn1-c1ccc(NC(=O)C(=O)NCC[C@H](NC(=O)c2ccc(Nc3nc(NC4(c5ccc(Cl)cc5)CC4)nc(OCC(F)(F)F)n3)cc2)C(=O)O)cc1 [Compound 3236],0.01 to 10
5,NC(=O)C(=O)NCC(O)CNC(=O)c1ccc(Nc2nc(NC3(c4ccc(Cl)cc4)CC3)nc(OCC(F)(F)F)n2)cc1 (stereo not shown) [Compound 3458],0.01 to 10
6,CC(C)(CNC(=O)C(N)=O)CNC(=O)c1ccc(Nc2nc(NC3(c4ccccc4F)CC3)nc(OCC(F)(F)F)n2)cc1 [Compound 3243],0.01 to 10
7,Cc1cc(NC(=O)C(=O)N(CCO)CCCNC(=O)c2ccc(Nc3nc(NC4(c5ccc(Cl)cc5)CC4)nc(OCC(F)(F)F)n3)cc2)no1 [Compound 3500],0.01 to 10
8,COC(=O)[C@H](CCNC(=O)C(=O)Nc1ccc(OCc2ccccc2)cc1)NC(=O)c1ccc(Nc2nc(NC3(c4ccc(Cl)cc4)CC3)nc(OCC(F)(F)F)n2)cc1 [Compound 3118],0.01 to 10
9,CC(C)(CNC(=O)C(=O)Nc1ccc2nccnc2c1)CNC(=O)c1ccc(Nc2nc(NC3(c4ccc(Cl)cc4)CC3)nc(OCC(F)(F)F)n2)cc1 [Compound 3026],0.01 to 10
10,CC(F)Oc1ccc(NC(=O)C(=O)NC[C@H](NC(=O)c2ccc(Nc3nc(NC4(c5ccc(Cl)cc5)CC4)nc(OCC(F)(F)F)n3)cc2)C(=O)O)cc1 (stereo partly shown) [Compound 3298],0.01 to 10
11,COC(=O)[C@@H](CCNC(=O)C(=O)Nc1cccc(-c2cnco2)c1)NC(=O)c1ccc(Nc2nc(NC3(c4ccc(Cl)cc4)CC3)nc(OCC(F)(F)F)n2)cc1 [Compound 3579],0.01 to 10
12,CC(C)(CNC(=O)C(=O)Nc1ccc(OC(F)(F)F)cc1)CNC(=O)c1ccc(Nc2nc(NC3(c4ccc(Cl)cc4)CC3)nc(OCC(F)(F)F)n2)cc1F [Compound 3559],0.01 to 10
13,COC(=O)[C@H](CNC(=O)C(=O)Nc1ccc(C(C)C)cc1)NC(=O)c1ccc(Nc2nc(NC3(c4ccc(Cl)cc4)CC3)nc(OCC(F)(F)F)n2)cc1 [Compound 3212],0.01 to 10
14,CC(C)(CNC(=O)C(N)=O)CNC(=O)c1ccc(Nc2nc(NC3(c4ccc(F)cc4)CC3)nc(OCC(F)(F)F)n2)cc1 [Compound 3247],0.01 to 10
15,CC(C)(CNC(=O)C(N)=O)CNC(=O)c1ccc(Nc2nc(NC3(c4ccccc4Cl)CC3)nc(OCC(F)(F)F)n2)cc1 [Compound 3265],10 to 1000
16,COC(=O)[C@H](CNC(=O)C(=O)Nc1ccc(-n2nnnc2C)cc1)NC(=O)c1ccc(Nc2nc(NC3(c4ccc(Cl)cc4)CC3)nc(OCC(F)(F)F)n2)cc1 [Compound 3107],0.01 to 10
17,O=C(NC/C(=N/C(=O)c1ccc(Nc2nc(NC3(c4ccc(Cl)cc4)CC3)nc(OCC(F)(F)F)n2)cc1)C(=O)O)C(=O)Nc1ccc(Cc2ccncc2)cc1 [Compound 3162],0.01 to 10
